Measured values published in paper PMC3940083 (International Journal for Parasitology: Drugs and Drug …, 2013).

Legend:
Format in all cases: biochemical
[1] = biological target: T1, PfAdoMetDC (S-adenosyl-L-methionine decarboxylase) (Plasmodium falciparum, UniProt Q8IJ77); assay: radiolabeled CO2 release assay, % inhibition at […]; conditions: read-out: % inhibition at 1 μM
T1 sequence (Q8IJ77 1-72 limits assumed): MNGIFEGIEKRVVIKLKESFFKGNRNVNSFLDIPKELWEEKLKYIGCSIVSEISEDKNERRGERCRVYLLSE
T1 sequence (Q8IJ77 73-529 limits assumed): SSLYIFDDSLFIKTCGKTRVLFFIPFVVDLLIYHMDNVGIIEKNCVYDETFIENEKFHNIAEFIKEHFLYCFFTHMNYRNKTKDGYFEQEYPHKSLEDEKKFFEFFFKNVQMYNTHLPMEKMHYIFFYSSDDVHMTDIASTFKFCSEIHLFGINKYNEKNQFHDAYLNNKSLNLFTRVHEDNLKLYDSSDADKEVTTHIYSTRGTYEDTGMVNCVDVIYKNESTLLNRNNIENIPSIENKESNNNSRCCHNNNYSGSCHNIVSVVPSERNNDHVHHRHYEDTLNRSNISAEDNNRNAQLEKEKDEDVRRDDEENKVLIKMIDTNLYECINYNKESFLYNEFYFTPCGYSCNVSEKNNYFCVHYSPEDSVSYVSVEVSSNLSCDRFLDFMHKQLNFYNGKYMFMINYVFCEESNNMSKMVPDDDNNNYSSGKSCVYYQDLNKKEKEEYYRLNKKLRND

[2] = biological target: T2, PfAdoMetDC/ODC (S-adenosyl-L-methionine decarboxylase, AdoMetDC domain) (Plasmodium falciparum, UniProt Q8IJ77); conditions: read-out: Ki
T2 sequence (Q8IJ77 1-72): T1 sequence (Q8IJ77 1-72 limits assumed)
T2 sequence (Q8IJ77 73-1434): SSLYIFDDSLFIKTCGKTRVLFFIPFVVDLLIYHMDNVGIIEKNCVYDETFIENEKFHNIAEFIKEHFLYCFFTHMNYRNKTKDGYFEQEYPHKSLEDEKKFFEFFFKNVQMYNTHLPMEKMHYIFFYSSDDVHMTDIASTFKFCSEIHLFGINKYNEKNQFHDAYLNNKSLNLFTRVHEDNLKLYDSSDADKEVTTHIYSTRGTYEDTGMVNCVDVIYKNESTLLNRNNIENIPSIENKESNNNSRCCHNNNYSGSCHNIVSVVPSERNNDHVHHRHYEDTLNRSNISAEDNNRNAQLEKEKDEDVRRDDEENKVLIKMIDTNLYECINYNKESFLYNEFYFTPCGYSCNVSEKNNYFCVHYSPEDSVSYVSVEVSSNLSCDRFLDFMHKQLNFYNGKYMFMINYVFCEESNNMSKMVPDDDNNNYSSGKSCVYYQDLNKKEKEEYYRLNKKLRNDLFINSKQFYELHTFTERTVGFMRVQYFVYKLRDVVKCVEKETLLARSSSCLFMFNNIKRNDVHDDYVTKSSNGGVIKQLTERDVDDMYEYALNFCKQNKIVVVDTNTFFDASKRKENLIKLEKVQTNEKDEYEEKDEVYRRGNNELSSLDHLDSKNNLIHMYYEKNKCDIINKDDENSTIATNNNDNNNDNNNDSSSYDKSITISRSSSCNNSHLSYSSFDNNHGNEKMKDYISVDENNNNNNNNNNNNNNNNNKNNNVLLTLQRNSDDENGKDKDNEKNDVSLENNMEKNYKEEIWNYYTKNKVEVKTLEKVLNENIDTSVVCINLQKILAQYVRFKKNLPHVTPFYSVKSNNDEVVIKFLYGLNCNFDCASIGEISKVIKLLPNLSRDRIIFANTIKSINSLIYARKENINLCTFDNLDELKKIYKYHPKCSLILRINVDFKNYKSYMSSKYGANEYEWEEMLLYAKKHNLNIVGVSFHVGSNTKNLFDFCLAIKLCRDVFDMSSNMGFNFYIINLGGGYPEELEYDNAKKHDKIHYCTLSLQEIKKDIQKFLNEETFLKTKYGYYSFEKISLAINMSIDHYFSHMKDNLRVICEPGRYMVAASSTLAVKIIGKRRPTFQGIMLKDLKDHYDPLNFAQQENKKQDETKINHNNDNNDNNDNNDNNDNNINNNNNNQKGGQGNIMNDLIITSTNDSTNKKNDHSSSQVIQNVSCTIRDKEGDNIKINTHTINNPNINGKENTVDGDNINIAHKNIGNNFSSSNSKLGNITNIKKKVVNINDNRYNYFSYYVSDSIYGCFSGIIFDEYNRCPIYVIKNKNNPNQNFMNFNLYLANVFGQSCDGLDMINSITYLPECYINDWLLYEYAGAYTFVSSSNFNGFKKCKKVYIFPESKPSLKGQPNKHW

[3] = biological target: T1, PfAdoMetDC (S-adenosyl-L-methionine decarboxylase); conditions: read-out: Ki

With `CN(C/C=C\CN)C[C@H]1O[C@@H](n2cnc3c(N)ncnc32)[C@@](O)(F)[C@@H]1O` [Genz-644043, 2′-fluoro-5′-{[(Z)-4-amino-2-butenyl]methylamino}-5′-deoxyadenosine] the inhibition at 1 µM [1] was 57%.
Work on `Cc1nc2c(N)ncnc2n1[C@@H]1O[C@H](CN(C)C/C=C\CN)[C@@H](O)[C@H]1O` [Genz-644131, 8-methyl-5′-{[(Z)-4-aminobut-2-enyl]methylamino}-5′-deoxyadenosine] yielded a KI (inactivation) [2] of 0.18 ± 0.02 µM.
Work on `CN(C/C=C\CN)C[C@H]1O[C@@H](n2cnc3c(N)ncnc32)[C@H](O)[C@@H]1O` [MDL73811, 5′-{[(Z)-4-amino-2-butenyl]methylamino}-5′-deoxyadenosine] yielded a KI (inactivation) [3] of 0.22 ± 0.09 µM.
